Patent EP2371816A1, “Aminocyclohexenone, their preparation and use as medicament against oxidative stress” (ABIOGEN PHARMA S.p.A., priority 2010, dated 2011)

Key:
[1] = pH at the semi-neutralization point of titration (pKa); format: physicochemical; details: titration with 0.1 N NaOH or HCl
Description: The following equipment was used during the implementation of all the examples: • for melting point determination a Buchi B-540 instrument was used; • for pH determination at the semi-neutralization point of titration (pKa) a Mettler Toledo DL-50 instrument was used with a 0.1 N xNaOH or HCl solution; • the ^1H-NMR spectra were recorded at 300 MHz and the ^13C-NMR spectra were recorded at 75 MHz using a Varian Unity 300 instrument; • spectrophotometric measurements were carried out using a Lambda Perkin Elmer 15 UV/Vis spectrophotometer for the DPPH assay and a Wallac Victor 1420 multilabel counter spectrophotometer.

[2] = test system: cerebral oxidative stress induced in mice by doxorubicin; assay: In vivo assay of cerebral oxidative stress induced in mice by doxorubicin; details: for Brain/BWi its own / CAT/pr its own / GPX/pr its own / GSH/pr its own / GST/pr its own / Prot. Hmg its own / Prot. Ox/pr its own / SOD/pr its own / Brain/BWi vehicle / CAT/pr vehicle / GPX/pr vehicle / GSH/pr vehicle / GST/pr vehicle / Prot. Hmg vehicle / Prot. Ox/pr vehicle / SOD/pr vehicle: % inhibition relative to variation due to doxorubicin alone, oxidized animals; for Brain/BWi its own / CAT/pr its own / GPX/pr its own / GSH/pr its own / GST/pr its own / Prot. Hmg its own / Prot. Ox/pr its own / SOD/pr its own: as function of its own control; for Brain/BWi vehicle / CAT/pr vehicle / GPX/pr vehicle / GSH/pr vehicle / GST/pr vehicle / Prot. Hmg vehicle / Prot. Ox/pr vehicle / SOD/pr vehicle: as function of vehicle; for Brain/BWi / CAT/pr / GPX/pr / GSH/pr / GST/pr / Prot. Hmg / Prot. Ox/pr / SOD/pr: % variation relative to the vehicle, 50 mg/kg IP x3 days (D = doxorubicin alone); for Brain/BWi / CAT/pr / GPX/pr / GSH/pr / GST/pr / Prot. Hmg / Prot. Ox/pr / SOD/pr / Mean % variation relative to the vehicle: healthy animals; for Mean % variation relative to the vehicle: 50 mg/kg IP days 0, 1 and 2, mean over all parameters, approximate safety index (D = doxorubicin alone); for overall percentage inhibition: with respect to Its own vehicle
Description: The assay was carried out on compounds (1) and (3)-(6) and on edaravone (E) as comparative compound.
10 mice were used for each treatment group. For each compound 50 mg/kg were administered intraperitoneally (IP) for three consecutive days (day 0, 1 and 2); half the animals (5) also received IP 16.7 mg/kg of doxorubicin immediately after the first treatment (day 0). On the day after the last administration (day 3) the animals were killed by neck dislocation and the brains were removed, weighed and frozen in liquid nitrogen.
For the analyses of oxidative stress, 100 mg/ml of brain homogenate was prepared in Hebe buffer (pH 7.4 EDTA/HEPES^(**)) containing a mixture of enzyme inhibitors (Leupeptin, Pepstatin, Aprotinin, BHA). • ^(*) Hypotonic Extraction Buffer • ^(**) 4-2-hydroxyethyl-1-piperazinyl-ethanesulphonic acid
The evaluation parameters were: • BrW/BWi: ratio between final brain weight and initial body weight (day 0); • Prot. Hmg: total proteins in the homogenate (BCA method, i.e. bicinchoninic acid); • Prot. Ox: oxidized proteins in the Hmg by means of a colorimetric method using […] (DNPH); • GSH: reduced glutathione in the supernatant (sn) of the Hmg, obtained after precipitation with metaphosphoric acid (MPA), by means of a colorimetric method using […] (DTNB); • CAT: catalase in the Hmg by a colorimetric method using potassium dichromate; • SOD: superoxide dismutase by a colorimetric method using SOD Reagent (xanthine, EDTA, nitroblue tetrazole, Na2CO3, BSA, i.e. bovine serum albumin); • GST: glutathione S-transferase in the supernatant by a colorimetric method using chlorodinitrobenzene (CDNB) and GSH; and • GPx: glutathione peroxidase in the supernatant after addition of GSH and tert butyl hydroperoxide (t-BuOOH), heating and precipitation with MPA; followed by GSH method with DTNB.
All the parameters, with the exclusion of Brain/BWi and Prot. Hmg, were normalized for total Hmg proteins (Table 3). The D value standard deviations and the % incidence relative to V are given in italics.
The mean % effect, on all the parameters simultaneously, of the triple treatment in the healthy animals, as mean percentage variation relative to the vehicle (table 4). This value is useful as an approximate safety index of the oxidative state of the brain, i.e. the capacity of the compounds of the invention not to alter cerebral homeostasis in healthy animals.
The effect of the tested compounds on the "oxidized" animals was given as % inhibition relative to the percentage variation due to doxorubicin alone. The effect of the compounds on the oxidized animals can be expressed both as a function of the values of the vehicle (healthy, vehicle only) and as a function of the value of its own control (healthy, compound only): • Vehicle: percentage [(Compound+D)/V]x100/[(V+D)/V]x100 • Its own: percentage [(Compound+D)/Compound]x100/[(V+D)/V]x100

[3] = mouse, in vivo
Description: The ability of the compounds of the invention to penetrate the brain was investigated by measuring their brain/plasma (B/P) concentration ratio in mice following intraperitoneal administration.
Female CD-1 mice were used (n=3 for each time period) and received the compounds of the invention by intraperitoneal administration, in 25 mg/kg doses in a 0.5% NaHCO3 buffer (pH 8.3). At predefined intervals following said administration, i.e. 5, 15, 30 and 60 minutes, the mice were killed and both plasma and total brain tissue were collected.
Specifically, after anaesthesia with ether, the animals were bled by blood withdrawal from the abdominal aorta then immediately decapitated. The blood samples were collected into plasma separator tubes containing Li-Heparin as anticoagulant and centrifuged. The resulting plasma was then stored at -20 °C. The brain was rapidly removed from the cranium and weighed, subsequently frozen and stored at -20 °C before treatment by homogenization and HPLC analysis.
The plasma was thawed and mixed with an equal volume of the extraction solution. This extraction solution was a mixture of aqueous and organic solvents whose composition had been previously determined by HPLC undertaken for each analyte.
1 ml of solution was then extracted by adding 20 µl of 70% HClO4 then centrifuged at 15,500g for 5 minutes and injected into the HPLC.
Each brain was thawed and homogenized with the extraction solution to provide a final composition of 4 ml/1g of tissue by means of an Ultra-Turrax blender and sonicated for 5 minutes. After centrifugation of the homogenate at 15,500g for 5 minutes, the resulting solution was treated with HClO4, as indicated for the plasma.
Specific chromatographic conditions had been developed for each analyte, the calibration curve being constructed for plasma and brain homogenate.

[4] = Acute toxicity study, intraperitoneal single dose (OECD guideline no. 420); format: in vivo; details: result in words, with reference to Example 13
Description: This study was carried out with the purpose of investigating the toxicity of a single dose of the listed compounds administered to ICR (CD-1) female mice. According to the current OECD guideline no.
The mice used were all female and were treated by intraperitoneal injection administration. The animals were observed individually and regularly for the first 4 hours and within 24 hours after administration, and then twice a day for the whole observation period. As soon as the animals were stabilized, observations at the weekend were undertaken once only during the day.
The evaluated parameters included the survival, body weight development, variations in skin and fur, changes in ocular, conjunctival and buccal mucous membranes, changes in activities of the respiratory, circulatory, autonomous and central nervous systems, changes in somatomotor activity and in behaviour.
Any appearance of tremors, convulsions, salivation, diarrhea, lethargy, drowsiness and coma were attentively and regularly monitored. At the end of the observation period, a post-mortem was carried out on all the animals.

| Structure (SMILES) | Brain/BWi its own [2] [%] | CAT/pr its own [2] [%] | GPX/pr its own [2] [%] | GSH/pr its own [2] [%] | GST/pr its own [2] [%] | Prot. Hmg its own [2] [%] | Prot. Ox/pr its own [2] [%] | SOD/pr its own [2] [%] | Brain/BWi vehicle [2] [%] | CAT/pr vehicle [2] [%] | GPX/pr vehicle [2] [%] | GSH/pr vehicle [2] [%] | GST/pr vehicle [2] [%] | Prot. Hmg vehicle [2] [%] | Prot. Ox/pr vehicle [2] [%] | SOD/pr vehicle [2] [%] | Brain/BWi [2] [%] | CAT/pr [2] [%] | GPX/pr [2] [%] | GSH/pr [2] [%] | further results |
| --- | --- | --- | --- | --- | --- | --- | --- | --- | --- | --- | --- | --- | --- | --- | --- | --- | --- | --- | --- | --- | --- |
| CC1(C)CC(=O)C=C(NCCN2CCCCC2)C1 [(1), 5,5-dimethyl-3-(2-(piperidin-1-yl)ethylamino)cyclohex-2-enone] | -76.8 | -32.6 | -16.2 | -8.8 | 5.5 | -16.9 | -95.9 | -9.1 | -33.3 | 77.3 | 22.2 | -2.4 | 16.5 | 22.9 | -82.6 | 29.4 | -3.2 | -7.1 | -7.6 | -1.5 | Acid dissociation constants: pKa1 [1]: 2.82; Acid dissociation constants: pKa2 [1]: 8.64; GST/pr [2]: -2.3%; Prot. Hmg [2]: 5.3%; Prot. Ox/pr [2]: 1.4%; SOD/pr [2]: -5.9%; Mean % variation relative to the vehicle [2]: -4.3%; overall percentage inhibition [2]: greater than 40%; bioavailability at the target site / crossing of the blood-brain barrier [3]: particularly bioavailable, as well as able to cross the blood-brain barrier in effective amounts; toxicity evaluation in vivo (tolerability) [4]: well tolerated |
| O=C1C=C(NCCN2CCCCC2)CC(c2ccccc2)C1 (stereo not shown) [(3), 5-phenyl-3-(2-(piperidin-1-yl)ethylamino)cyclohex-2-enone] | -30.4 | -48.5 | 23.2 | 0.0 | 37.4 | -101.2 | -116.3 | 107.7 | -76.8 | 3.0 | -20.2 | -7.2 | -48.4 | -32.5 | -107.0 | 86.7 | 1.0 | -9.2 | 2.4 | 0.4 | Acid dissociation constants: pKa1 [1]: 2.82; Acid dissociation constants: pKa2 [1]: 8.46; GST/pr [2]: 4.1%; Prot. Hmg [2]: 2.3%; Prot. Ox/pr [2]: -7.8%; SOD/pr [2]: 1.1%; Mean % variation relative to the vehicle [2]: -1.3%; overall percentage inhibition [2]: greater than 40%; bioavailability at the target site / crossing of the blood-brain barrier [3]: particularly bioavailable, as well as able to cross the blood-brain barrier in effective amounts |
| CC1(C)CC(=O)C=C(NN2CCCCC2)C1 [(6), 5,5-dimethyl-3-(piperidin-1-ylamino)cyclohex-2-enone] | -18.8 | -28.8 | -100.0 | -72.8 | -36.3 | -97.6 | 45.9 | -60.8 | 10.1 | 6.8 | -34.3 | -10.4 | -18.7 | -8.4 | 21.5 | -2.1 | -2.5 | -6.4 | -8.7 | -9.6 | pKa ([1]; read-out: Acid dissociation constant: pKa): 2.62; GST/pr [2]: -2.5%; Prot. Hmg [2]: 8.4%; Prot. Ox/pr [2]: -5.6%; SOD/pr [2]: -10.8%; Mean % variation relative to the vehicle [2]: -5.4%; overall percentage inhibition [2]: greater than 40%; bioavailability at the target site / crossing of the blood-brain barrier [3]: particularly bioavailable, as well as able to cross the blood-brain barrier in effective amounts; toxicity evaluation in vivo (tolerability) [4]: well tolerated |
